The values that follow are results of earlier work, collected in patent US11141417B2 (priority 2013, dated 2021).

Entries after “also recorded” stand apart in the source; their conditions may differ.

The conditions of this data set: classification in words.

Regarding `C[C@@H](c1ncncc1F)[C@](O)(Cn1cncn1)c1ccc(F)cc1F` [Voriconazole, (2R,3S)-2-(2,4-difluorophenyl)-3-(5-fluoro-4-pyrimidinyl)-1-(1H-1,2,4triazol-1-yl)-2-butanol], the solubility in water result is recorded as “only sparingly soluble in water; also recorded: very slightly soluble in water”.
